Reference: patent publication US8673548B2, “Genes and polypeptides relating to breast cancers” (Oncotherapy Science, Inc., priority 2006, dated 2014)
Entries after “also recorded” stand apart in the source; their conditions may differ.

Assays:
T47D cells [1] = experiment: cell proliferation MTT assay with pp1-18 peptide; format: cell-based, human; conditions: 0, 2.5, 5 and 10 μM every day; MTT at 5th day
From the text: (§1) To inhibit the phosphorylation of PBK/TOPK at Thr9 by CDK1-cyclin B1, we designed permeable peptide (pp1-18) identical to the N-terminus (1-18 amino acids) of PBK/TOPK ([…]-G-[…]: SEQ ID NO: 99) was synthesized by Sigma-Aldrich. The efficacy of the peptide blocking the CDK1-cyclin B1-induced phosphorylation of PBK/TOPK was estimated by in vitro kinase assay according to in vitro kinase section. […] The phosphorylation of PBK/TOPK and cyclin B1 proteins were observed by SDS-PAGE and autoradiography. For the cell proliferation assay, T47D and HMEC cells were seeded at 1.3×10^4 cells in a 12-well plate, respectively. At the following day, each concentration (0, 2.5, 5, and 10 μM) of pp1-18 peptide was treated everyday, and cell viability was measured by MTT assay at 5th day. A significance of the pp 1-18 peptide to suppress T47D cell growth was statistically evaluated by the Student's t-test. To inhibit the phosphorylation of PBK/TOPK in mitotic cells by using pp1-18 peptide, T47D cells were seeded at 1×10^5 cells in a 60 mm dish. Two days after incubation, both nocodazole (0.3 μg/mL) and the permeable peptide (10 μM) were treated for further 18 or 24 hours before collection, and then phosphorylation of PBK/TOPK was investigated by western blotting using anti-PBK/TOPK monoclonal antibody and FACS analysis. […]

HMEC cells = experiment: cell proliferation MTT assay with pp1-18 peptide; format: cell-based, human; conditions: 0, 2.5, 5 and 10 μM every day; MTT at 5th day
From the text: as §1

PBK/TOPK = experiment: western blot of PBK/TOPK phosphorylation in nocodazole-treated mitotic cells with pp1-18; format: cell-based, human; conditions: T47D; nocodazole plus 10 μM peptide, 18 or 24 hours
From the text: as §1

CDK1-cyclin B1 = molecular target: T1, CDK1-cyclin B1 (Homo sapiens, UniProt P06493); experiment: in vitro kinase assay, CDK1-cyclin B1 phosphorylation of PBK/TOPK; format: biochemical; conditions: peptide 0-20 μM
T1 construct: purchased New England Biolabs
T1 sequence (P06493 whole entry): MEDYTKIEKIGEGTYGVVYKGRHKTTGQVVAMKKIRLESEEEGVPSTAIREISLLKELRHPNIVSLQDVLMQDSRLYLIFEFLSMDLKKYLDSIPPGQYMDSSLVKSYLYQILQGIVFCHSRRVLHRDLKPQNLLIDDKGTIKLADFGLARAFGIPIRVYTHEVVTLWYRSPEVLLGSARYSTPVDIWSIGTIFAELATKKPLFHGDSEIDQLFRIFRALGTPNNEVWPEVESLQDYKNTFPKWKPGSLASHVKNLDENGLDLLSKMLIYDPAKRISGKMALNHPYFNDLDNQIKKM
T1 sequence (P14635 whole entry partner): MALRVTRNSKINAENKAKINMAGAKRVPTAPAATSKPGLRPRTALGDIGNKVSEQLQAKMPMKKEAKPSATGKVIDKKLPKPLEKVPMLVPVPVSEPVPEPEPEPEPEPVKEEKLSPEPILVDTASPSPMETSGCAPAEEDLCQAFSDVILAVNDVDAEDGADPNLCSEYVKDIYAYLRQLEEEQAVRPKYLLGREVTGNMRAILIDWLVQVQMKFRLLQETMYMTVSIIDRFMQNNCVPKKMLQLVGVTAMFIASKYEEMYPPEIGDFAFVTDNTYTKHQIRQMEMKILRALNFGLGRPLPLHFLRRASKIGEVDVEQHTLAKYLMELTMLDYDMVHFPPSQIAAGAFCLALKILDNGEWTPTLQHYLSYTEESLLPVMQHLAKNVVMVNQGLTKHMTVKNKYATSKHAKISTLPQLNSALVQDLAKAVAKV
Procedure: After 30 minutes incubation at 30° C., the reactions were terminated by addition of SDS-sample buffer. After boiling, the protein samples were electrophoresed and autoradiographed.
as §1, with “dish.” for “dish. Two days after incubation, both nocodazole (0.3 μg/mL) and the permeable peptide (10 μM) were treated for further 18 or 24 hours before collection, and then phosphorylation of PBK/TOPK was investigated by western blotting using anti-PBK/TOPK monoclonal antibody and FACS analysis.”

T47D cells [2] = experiment: phase contrast microscopy of cells treated with pp1-18; format: cell-based, human; conditions: 50 μM peptide
T47D cells [3] = experiment: FACS cell cycle analysis with nocodazole and pp1-18; format: cell-based, human; conditions: 24 hours after treatment of nocodazole, 10 μM peptide
From the text: as §1

For “RRRRRRRRRRR-G-MEGISNFKTPSKLSEKKK (RRRRRRRRRRRGMEGISNFKTPSKLSEKKK; N-terminal poly-arginine (R11) and glycine linker; An artificialy designed dominant negative) [pp1-18]”, the “growth of T47D breast cancer cells” value (T47D cells [1]) was “significantly suppressed cell growth; also recorded: clearly suppressed the growth”, the “growth of HMEC cells” value (HMEC cells) was “did not affect the growth; also recorded: no effect” and the “phosphorylation of PBK/TOPK in mitotic cells” value (PBK/TOPK) was “drastically reduced”. The “phosphorylation of recombinant PBK/TOPK protein by CDK1-cyclin B1” value (CDK1-cyclin B1) was “diminished in dose-dependent manner”, the cellular morphology (T47D cells [2]) was “long intercellular bridge; also recorded: prolonged midbodies by abnormal cytokinesis” and the “shift to G2/M phase of cell cycle” value (T47D cells [3]) was “blocked shift to G2/M phase”.
